Test results taken from patent US7932262B2 (Novartis AG, priority 2006, dated 2011).

Assays:
A2780 cells = test: Cell Proliferation Assay (Cell Titer Glo), A2780; format: cell-based; details: Homo sapiens; cell proliferation, A2780 cells; read-out: CPEC50 A2780
Outline: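 Cells seeded at 1000/well, allowed to adhere 3-5 h, then exposed to DMSO-dissolved compounds for 3 days at 37° C., 5% CO2. Medium replaced before Cell Titer Glo addition; luminescence read after 10 min.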

PDK1 kinase = target: T1, PDK1 kinase (Homo sapiens, UniProt O15530); test: PDK1 Kinase Alpha Screen Assay; format: biochemical; details: PDK1 Kinase Alpha Screen Assay; read-out: PDK1 IC50
T1 sequence (O15530 1-556): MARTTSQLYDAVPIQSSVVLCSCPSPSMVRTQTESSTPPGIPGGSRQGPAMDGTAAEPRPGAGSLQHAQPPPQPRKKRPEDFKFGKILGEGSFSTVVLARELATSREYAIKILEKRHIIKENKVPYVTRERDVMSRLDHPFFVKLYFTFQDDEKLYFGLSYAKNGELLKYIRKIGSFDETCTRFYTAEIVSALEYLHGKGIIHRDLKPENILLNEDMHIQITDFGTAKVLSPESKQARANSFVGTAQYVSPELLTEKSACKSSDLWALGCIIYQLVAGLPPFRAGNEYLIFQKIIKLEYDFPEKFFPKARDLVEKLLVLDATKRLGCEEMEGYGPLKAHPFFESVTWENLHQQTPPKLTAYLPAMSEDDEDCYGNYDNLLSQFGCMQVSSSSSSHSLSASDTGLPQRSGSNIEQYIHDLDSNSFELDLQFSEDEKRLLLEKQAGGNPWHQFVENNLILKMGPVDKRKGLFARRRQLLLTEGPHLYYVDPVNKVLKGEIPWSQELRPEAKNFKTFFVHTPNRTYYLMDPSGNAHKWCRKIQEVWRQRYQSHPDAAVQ
Outline: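 Biotinylated PDK1-4 peptide (50 nM) phosphorylated by PDK1 with 10 uM ATP in pH 7.5 Tris/MgCl2/DTT buffer, 2.5% DMSO, for 3-18 hours. EDTA stop, then AlphaScreen detection with phospho-(Ser/Thr) PKA substrate antibody and protein A/streptavidin beads after overnight room-temperature development.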

SMILES	EC50 (A2780 cells) [µM]	IC50 (PDK1 kinase) [µM]
NS(=O)(=O)c1ccc(Nc2ncc3cccc(Nc4ccc(F)cc4)c3n2)cc1 [Compound 873, 4-(8-(4-fluorophenylamino)quinazolin-2-ylamino)benzenesulfonamide]	< 5	< 5
CC(C)N1CCC(Oc2ccc3cnc(Nc4ccc(S(=O)(=O)N5CCOCC5)cc4)nc3c2)CC1 [Compound 874, 7-(1-isopropylpiperidin-4-yloxy)-N-(4-(morpholinosulfonyl)phenyl)quinazolin-2-amine]	< 5	< 5
NS(=O)(=O)c1ccc(Nc2ncc3ccc(-c4ccc5c(c4)CCNC5=O)c(OC4CCNCC4)c3n2)cc1 [Compound 875, 4-(7-(1-oxo-1,2,3,4-tetrahydroisoquinolin-6-yl)-8-(piperidin-4-yloxy)quinazolin-2-ylamino)benzenesulfonamide]	5 to 10	< 5
CC(C)Cn1cc(-c2ccc3cnc(Nc4ccc(S(N)(=O)=O)cc4)nc3c2OC2CCNCC2)cn1 [Compound 876, 4-(7-(1-isobutyl-1H-pyrazol-4-yl)-8-(piperidin-4-yloxy)quinazolin-2-ylamino)benzenesulfonamide]	< 5	< 5
NS(=O)(=O)c1ccc(Nc2ncc3ccc(-c4cnccn4)c(OC4CCNCC4)c3n2)cc1 [Compound 877, 4-(8-(piperidin-4-yloxy)-7-(pyrazin-2-yl)quinazolin-2-ylamino)benzenesulfonamide]	< 5	< 5
NS(=O)(=O)c1ccc(Nc2ncc3ccc(-c4ccc(NCCN5CCCC5)nc4)cc3n2)cc1 [Compound 878, 4-(7-(6-(2-(pyrrolidin-1-yl)ethylamino)pyridin-3-yl)quinazolin-2-ylamino)benzenesulfonamide]	< 5	< 5
CN1CCN(c2ccc(-c3ccc4cnc(Nc5ccc(S(N)(=O)=O)cc5)nc4c3)cn2)CC1 [Compound 879, 4-(7-(6-(4-methylpiperazin-1-yl)pyridin-3-yl)quinazolin-2-ylamino)benzenesulfonamide]	< 5	< 5
NS(=O)(=O)c1ccc(Nc2ncc3ccc(-c4ccc(N5CCCC5)nc4)cc3n2)cc1 [Compound 880, 4-(7-(6-(pyrrolidin-1-yl)pyridin-3-yl)quinazolin-2-ylamino)benzenesulfonamide]	5 to 10	< 5
NS(=O)(=O)c1ccc(Nc2ncc3ccc(-c4ccc(N5CCOCC5)nc4)cc3n2)cc1 [Compound 881]	< 5	< 5
CN1CCN(c2cc(-c3ccc4cnc(Nc5ccc(S(N)(=O)=O)cc5)nc4c3)ccn2)CC1 [Compound 882, 4-(7-(2-(4-methylpiperazin-1-yl)pyridin-4-yl)quinazolin-2-ylamino)benzenesulfonamide]	< 5	< 5
CC(C)CCn1cc(-c2ccc3cnc(Nc4ccc(S(N)(=O)=O)cc4)nc3c2)cn1 [Compound 883, 4-(7-(1-isopentyl-1H-pyrazol-4-yl)quinazolin-2-ylamino)benzenesulfonamide]	< 5	< 5
NC(=O)c1ccc(-c2cc(F)cc3cnc(Nc4ccc(S(N)(=O)=O)cc4)nc23)cc1 [Compound 886, 4-(6-fluoro-2-(4-sulfamoylphenylamino)quinazolin-8-yl)benzamide]	5 to 10	< 5
NS(=O)(=O)c1ccc(Nc2ncc3cccc(-c4ccc5c(c4)CCNC5=O)c3n2)cc1 [Compound 887, 4-(8-(1-oxo-1,2,3,4-tetrahydroisoquinolin-6-yl)quinazolin-2-ylamino)benzenesulfonamide]	5 to 10	< 5
NS(=O)(=O)c1ccc(Nc2ncc3cc(F)cc(-c4ccc(N5CCNC(=O)C5)nc4)c3n2)cc1 [Compound 889, 4-(6-fluoro-8-(6-(3-oxopiperazin-1-yl)pyridin-3-yl)quinazolin-2-ylamino)benzenesulfonamide]	< 5	< 5
NS(=O)(=O)c1ccc(Nc2ncc3cc(F)cc(-c4ccc(N5CCCC5)nc4)c3n2)cc1 [Compound 890, 4-(6-fluoro-8-(6-(pyrrolidin-1-yl)pyridin-3-yl)quinazolin-2-ylamino)benzenesulfonamide]	5 to 10	< 5
CC(=O)NCCNc1ccc(-c2cc(F)cc3cnc(Nc4ccc(S(N)(=O)=O)cc4)nc23)cn1 [Compound 891, N-(2-(5-(6-fluoro-2-(4-sulfamoylphenylamino)quinazolin-8-yl)pyridin-2-ylamino)ethyl)acetamide]	< 5	< 5
NS(=O)(=O)c1ccc(Nc2ncc3cccc(Nc4cccnc4)c3n2)cc1 [Compound 895, 4-(8-(pyridin-3-ylamino)quinazolin-2-ylamino)benzenesulfonamide]	5 to 10	< 5
NS(=O)(=O)c1ccc(Nc2ncc3cccc(CN4CCNC(=O)C4)c3n2)cc1 [Compound 896, 4-(8-((3-oxopiperazin-1-yl)methyl)quinazolin-2-ylamino)benzenesulfonamide]	< 5	< 5
CC(C)NCc1cccc2cnc(Nc3ccc(S(N)(=O)=O)cc3)nc12 [Compound 897, 4-(8-((isopropylamino)methyl)quinazolin-2-ylamino)benzenesulfonamide]	< 5	< 5
Cn1cc(-c2ccc3cnc(Nc4ccc(S(N)(=O)=O)cc4)nc3c2-c2cnn(C)c2)cn1 [Compound 898, 4-(7,8-bis(1-methyl-1H-pyrazol-4-yl)quinazolin-2-ylamino)benzenesulfonamide]	< 5	< 5
NS(=O)(=O)c1ccc(Nc2ncc3ccc(-c4cccnc4)c(-c4cccnc4)c3n2)cc1 [Compound 899, 4-(7,8-di(pyridin-3-yl)quinazolin-2-ylamino)benzenesulfonamide]	< 5	< 5

Now from value to compound:

EC50 (A2780 cells) [µM]	IC50 (PDK1 kinase) [µM]	SMILES
< 5	< 5	Cn1cc(-c2ccc3cnc(Nc4ccc(S(N)(=O)=O)cc4)nc3c2OC2CCNCC2)cn1 [Compound 860, 4-(7-(1-methyl-1H-pyrazol-4-yl)-8-(piperidin-4-yloxy)quinazolin-2-ylamino)benzenesulfonamide]
< 5	< 5	NS(=O)(=O)c1ccc(Nc2ncc3ccc(-c4ncco4)c(OC4CCNCC4)c3n2)cc1 [Compound 861, 4-(7-(oxazol-2-yl)-8-(piperidin-4-yloxy)quinazolin-2-ylamino)benzenesulfonamide]
< 5	< 5	NS(=O)(=O)c1ccc(Nc2ncc3ccc(-c4nccs4)c(OC4CCNCC4)c3n2)cc1 [Compound 862, 4-(8-(piperidin-4-yloxy)-7-(thiazol-2-yl)quinazolin-2-ylamino)benzenesulfonamide]
< 5	< 5	NS(=O)(=O)c1ccc(Nc2ncc3ccc(-c4ccccn4)c(OC4CCNCC4)c3n2)cc1 [Compound 863, 4-(8-(piperidin-4-yloxy)-7-(pyridin-2-yl)quinazolin-2-ylamino)benzenesulfonamide]
< 5	< 5	N#Cc1ccc2cnc(Nc3ccc(S(N)(=O)=O)cc3)nc2c1OC1CCNCC1 [Compound 864, 4-(7-cyano-8-(piperidin-4-yloxy)quinazolin-2-ylamino)benzenesulfonamide]
< 5	< 5	Cc1n[nH]c(C)c1-c1ccc2cnc(Nc3ccc(S(N)(=O)=O)cc3)nc2c1 [Compound 865, 4-(7-(3,5-dimethyl-1H-pyrazol-4-yl)quinazolin-2-ylamino)benzenesulfonamide]
< 5	< 5	NS(=O)(=O)c1ccc(Nc2ncc3ccc(-c4cnoc4)cc3n2)cc1 [Compound 866, 4-(7-(isoxazol-4-yl)quinazolin-2-ylamino)benzenesulfonamide]
< 5	< 5	Cc1noc(C)c1-c1ccc2cnc(Nc3ccc(S(N)(=O)=O)cc3)nc2c1 [Compound 867, 4-(7-(3,5-dimethylisoxazol-4-yl)quinazolin-2-ylamino)benzenesulfonamide]
< 5	< 5	O=S(=O)(c1ccc(Nc2ncc3ccc(-c4cn[nH]c4)cc3n2)cc1)N1CCOCC1 [Compound 868, N-(4-(morpholinosulfonyl)phenyl)-7-(1H-pyrazol-4-yl)quinazolin-2-amine]
< 5	< 5	CN1CCC(c2c(O)ccc3cnc(Nc4ccc(S(N)(=O)=O)cc4)nc23)CC1 [Compound 870, 4-(7-hydroxy-8-(1-methylpiperidin-4-yl)quinazolin-2-ylamino)benzenesulfonamide]
< 5	< 5	CN1CCN(Cc2cccc3cnc(Nc4ccc(S(N)(=O)=O)cc4)nc23)CC1 [Compound 871, 4-(8-((4-methylpiperazin-1-yl)methyl)quinazolin-2-ylamino)benzenesulfonamide]
< 5	< 5	NS(=O)(=O)c1ccc(Nc2ncc3cccc(CN4CCOCC4)c3n2)cc1 [Compound 872, 4-(8-(morpholinomethyl)quinazolin-2-ylamino)benzenesulfonamide]
